Assay results as given in the supplement of paper PMC13380429.

Legend:
Conditions in all cases: 72 h
Caco-2 [1] = assay: cell viability relative to DMSO; higher = less toxic
Calu-3 [2] = assay: as above
HepG2 [3] = assay: as above
Vero E6 [4] = assay: as above
Caco-2 [5] = assay: relative viability EC50 (midpoint between 100% and the lowest measured viability); higher = less toxic
Calu-3 [6] = assay: as above
HepG2 [7] = assay: as above
Vero E6 [8] = assay: as above
Caco-2 [9] = assay: drug sensitivity score (DSS) for viability; higher = more toxic; extreme values may be limits of the assay
Calu-3 [10] = assay: as above
HepG2 [11] = assay: as above
Vero E6 [12] = assay: as above
U2OS [13] = assay: cell viability relative to DMSO; higher = less toxic
U2OS [14] = assay: drug sensitivity score (DSS) for viability; higher = more toxic; extreme values may be limits of the assay

SMILES	cell viability (Caco-2 [1]; 1 nM) [%]	cell viability (Caco-2 [1]; 10 nM) [%]	cell viability (Caco-2 [1]; 100 nM) [%]	cell viability (Caco-2 [1]; 1000 nM) [%]	cell viability (Caco-2 [1]; 10000 nM) [%]	cell viability (Calu-3 [2]; 1 nM) [%]	cell viability (Calu-3 [2]; 10 nM) [%]	cell viability (Calu-3 [2]; 100 nM) [%]	cell viability (Calu-3 [2]; 1000 nM) [%]	cell viability (Calu-3 [2]; 10000 nM) [%]	cell viability (HepG2 [3]; 1 nM) [%]	cell viability (HepG2 [3]; 10 nM) [%]	cell viability (HepG2 [3]; 100 nM) [%]	cell viability (HepG2 [3]; 1000 nM) [%]	cell viability (HepG2 [3]; 10000 nM) [%]	cell viability (Vero E6 [4]; 1 nM) [%]	cell viability (Vero E6 [4]; 10 nM) [%]	cell viability (Vero E6 [4]; 100 nM) [%]	cell viability (Vero E6 [4]; 1000 nM) [%]	cell viability (Vero E6 [4]; 10000 nM) [%]	relative viability EC50 (Caco-2 [5]) [µM]	relative viability EC50 (Calu-3 [6]) [µM]	relative viability EC50 (HepG2 [7]) [µM]	relative viability EC50 (Vero E6 [8]) [µM]	drug sensitivity score (Caco-2 [9])	drug sensitivity score (Calu-3 [10])	drug sensitivity score (HepG2 [11])	drug sensitivity score (Vero E6 [12])	cell viability (U2OS [13]; 1 nM) [%]	cell viability (U2OS [13]; 10 nM) [%]	cell viability (U2OS [13]; 100 nM) [%]	cell viability (U2OS [13]; 1000 nM) [%]	cell viability (U2OS [13]; 10000 nM) [%]	drug sensitivity score (U2OS [14])
CC(C)(C)c1ccc(CN(Cc2cccc(OCC(=O)O)c2)S(=O)(=O)c2cccnc2)cc1 [evatanepag]	98.5	97.8	101	102	101	110	101	94.2	99.7	94.9	99.1	108	91.7	94.3	93.6	108	104	102	97.4	93.5	> 10	> 10	> 10	> 10	0	0	0	0						
NS(=O)(=O)c1cc(C(=O)O)c(NCc2ccco2)cc1Cl [furosemide]	104	95.8	102	106	112	98.1	95.3	103	81.5	104	121	87.5	113	103	120	99.8	90.5	97.1	89.6	105	> 10	> 10	> 10	> 10	0	0	0	0						
NCCNC(=O)c1ccc(Cl)cn1 [lazabemide]	98.1	95.6	101	103	101						99.6	96.4	113	114	125	95.6	99.2	90.8	91	104	> 10		> 10	> 10	0		0	0						
C#C[C@]1(OC(=O)CCCCCC)CC[C@H]2[C@@H]3CCC4=CC(=O)CC[C@@H]4[C@H]3CC[C@@]21C [norethisterone-enanthate]	99.9	102	99.8	95.8	58.5	100	104	90	94.1	57.1	95.9	95.7	96.9	88.8	19.2	96.6	97.1	98.8	94.5	84.2			2.06	> 10	2.8	3.2	6.4	0.6	98.5	100	100	98.8	68.1	1.6
